How the values were obtained:
Type in all cases: in vivo
[1] = tested on: sedge, umbrella (small-flower umbrella sedge, Cyperus difformis); assay: Test B flooded paddy test; details: Cyperus difformis, 250 g ai/ha, Flood; 0 to 100 scale where 0 is no effect and 100 is complete control; read-out: Sedge, Umbrella plant response rating
Method in brief: (§1)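 Visual ratings (0 none to 100 complete control) are relative to untreated plants, taken 13–15 d after treatment in a greenhouse. Test material went straight into floodwater standing 3 cm above the soil, kept constant, on plants at the 2-leaf stage.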

[2] = tested on: ducksalad (Heteranthera limosa); assay: Test B flooded paddy test; details: Heteranthera limosa, 250 g ai/ha, Flood; 0 to 100 scale where 0 is no effect and 100 is complete control; read-out: Ducksalad plant response rating
Method in brief: as §1

rice (Oryra sativa) = assay: Test B flooded paddy test; details: Oryza sativa, 250 g ai/ha, Flood; 0 to 100 scale where 0 is no effect and 100 is complete control; read-out: Rice plant response rating
Method in brief: as §1

[3] = tested on: barnyardgrass (Echinochloa crus-galli); assay: Test B flooded paddy test; details: Echinochloa crus-galli, 250 g ai/ha, Flood; 0 to 100 scale where 0 is no effect and 100 is complete control; read-out: Barnyardgrass plant response rating
Method in brief: as §1

[4] = tested on: giant foxtail (Setaria faberii); assay: Test A preemergence; details: Setaria faberi, pre-emergence, 240 h, 0 to 100 scale where 0 is no effect and 100 is complete control, read-out: Foxtail, Giant plant response rating
Method in brief: (§2)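 Each rating is a visual injury score from 0 to 100 given about 10 d after treatment, judged against untreated controls kept alongside in the greenhouse. In loam soil–sand blend, seeds got a preemergence directed soil spray, while postemergence plants were 2 to 10 cm tall at spraying.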

[5] = tested on: ragweed (common ragweed, Ambrosia elatior); assay: Test A preemergence; details: Ambrosia artemisiifolia, pre-emergence, 240 h, 0 to 100 scale where 0 is no effect and 100 is complete control, read-out: Ragweed plant response rating
Method in brief: as §2

[6] = tested on: barnyardgrass (Echinochloa crus-galli); assay: Test A preemergence; details: Echinochloa crus-galli, pre-emergence, 240 h, 0 to 100 scale where 0 is no effect and 100 is complete control, read-out: Barnyardgrass plant response rating
Method in brief: as §2

[7] = tested on: ryegrass, Italian (Italian ryegrass, Lolium multiflorum); assay: Test A preemergence; details: Lolium multiflorum, pre-emergence, 240 h, 0 to 100 scale where 0 is no effect and 100 is complete control, read-out: Ryegrass, Italian plant response rating
Method in brief: as §2

Kochia (Kochia scoparia) [8] = assay: Test A preemergence; details: Bassia scoparia, pre-emergence, 240 h, 0 to 100 scale where 0 is no effect and 100 is complete control, read-out: Kochia plant response rating
Method in brief: as §2

[9] = tested on: pigweed (Amaranthus retroflexus); assay: Test A preemergence; details: Amaranthus retroflexus, pre-emergence, 240 h, 0 to 100 scale where 0 is no effect and 100 is complete control, read-out: Pigweed plant response rating
[10] = tested on: Galium (catchweed bedstraw, Galium aparine); assay: Test A postemergence; details: Galium, post-emergence, 240 h
Method in brief: as §2

[11] = tested on: giant foxtail (Setaria faberii); assay: Test A postemergence; details: Setaria faberi, post-emergence, 240 h
Method in brief: as §2

[12] = tested on: ragweed (common ragweed, Ambrosia elatior); assay: Test A postemergence; details: Ambrosia artemisiifolia, post-emergence, 240 h
Method in brief: as §2

corn (Zea mays) = assay: Test A postemergence; details: Zea mays, post-emergence, 240 h
Method in brief: as §2

[13] = tested on: barnyardgrass (Echinochloa crus-galli); assay: Test A postemergence; details: Echinochloa crus-galli, post-emergence, 240 h
Method in brief: as §2

[14] = tested on: ryegrass, Italian (Italian ryegrass, Lolium multiflorum); assay: Test A postemergence; details: Lolium multiflorum, post-emergence, 240 h
Method in brief: as §2

Kochia (Kochia scoparia) [15] = assay: Test A postemergence; details: Bassia scoparia, post-emergence, 240 h
Method in brief: as §2

[16] = tested on: blackgrass (Alopecurus myosuroides); assay: Test A postemergence; details: Alopecurus myosuroides, post-emergence, 240 h
Method in brief: as §2

[17] = tested on: wheat (Triticum aestivum); assay: Test A postemergence; details: Triticum aestivum, post-emergence, 240 h
Method in brief: as §2

[18] = tested on: pigweed (Amaranthus retroflexus); assay: Test A postemergence; details: Amaranthus retroflexus, post-emergence, 240 h
Method in brief: as §2

[19] = 125 g ai/ha, preemergence, approx. 10 d

CN1C[C@H](c2cccc(C(F)(F)F)c2)[C@@H](C(=O)Nc2ccccc2CCO)C1=O (racemic) [Compound 1162]
pest or weed control at 250 g/ha [1]: 0% | pest or weed control at 250 g/ha [2]: 80% | pest or weed control at 250 g/ha (rice (Oryra sativa)): 15% | pest or weed control at 250 g/ha [3]: 35% | pest or weed control at 31 g/ha ([4]; 31 g ai/ha, Preemergence): 50% | pest or weed control at 125 g/ha [4, 19]: 90% | pest or weed control at 31 g/ha ([5]; 31 g ai/ha, Preemergence): 0% | pest or weed control at 125 g/ha [5, 19]: 0% | pest or weed control at 31 g/ha ([6]; 31 g ai/ha, Preemergence): 40% | pest or weed control at 125 g/ha [6, 19]: 90% | pest or weed control at 31 g/ha ([7]; 31 g ai/ha, Preemergence): 0% | pest or weed control at 125 g/ha [7, 19]: 20% | pest or weed control at 31 g/ha (Kochia (Kochia scoparia) [8]; 31 g ai/ha, Preemergence): 0% | pest or weed control at 125 g/ha (Kochia (Kochia scoparia) [8]; [19]): 0% | pest or weed control at 31 g/ha ([9]; 31 g ai/ha, Preemergence): 0% | pest or weed control at 125 g/ha [9, 19]: 0% | pest or weed control at 125 g/ha ([10]; 125 g ai/ha, postemergence, visual injury vs untreated controls after approx. 10 d, 0 = no effect, 100 = complete control, read-out: Galium plant response rating (0 to 100 scale)): 50% | pest or weed control at 31 g/ha ([10]; Postemergence, 31 g ai/ha, visual injury after approx. 10 d, 0 to 100 scale, 0 no effect, 100 complete control, read-out: Plant response rating, Galium): 0% | pest or weed control at 125 g/ha ([11]; 125 g ai/ha, postemergence, visual injury vs untreated controls after approx. 10 d, 0 = no effect, 100 = complete control, read-out: Foxtail, Giant plant response rating (0 to 100 scale)): 40% | pest or weed control at 31 g/ha ([11]; Postemergence, 31 g ai/ha, visual injury after approx. 10 d, 0 to 100 scale, 0 no effect, 100 complete control, read-out: Plant response rating, Foxtail, Giant): 30% | pest or weed control at 125 g/ha ([12]; 125 g ai/ha, postemergence, visual injury vs untreated controls after approx. 10 d, 0 = no effect, 100 = complete control, read-out: Ragweed plant response rating (0 to 100 scale)): 0% | pest or weed control at 31 g/ha ([12]; Postemergence, 31 g ai/ha, visual injury after approx. 10 d, 0 to 100 scale, 0 no effect, 100 complete control, read-out: Plant response rating, Ragweed): 0% | plant injury at 125 g/ha (corn (Zea mays); 125 g ai/ha, postemergence, visual injury vs untreated controls after approx. 10 d, 0 = no effect, 100 = complete control, read-out: Corn plant response rating (0 to 100 scale)): 0% | Corn plant response rating (crop injury, 0 = no effect, 100 = complete kill) at 31 g/ha (corn (Zea mays); Postemergence, 31 g ai/ha, visual injury after approx. 10 d, 0 to 100 scale, 0 no effect, 100 complete control): 0% | pest or weed control at 125 g/ha ([13]; 125 g ai/ha, postemergence, visual injury vs untreated controls after approx. 10 d, 0 = no effect, 100 = complete control, read-out: Barnyardgrass plant response rating (0 to 100 scale)): 60% | pest or weed control at 31 g/ha ([13]; Postemergence, 31 g ai/ha, visual injury after approx. 10 d, 0 to 100 scale, 0 no effect, 100 complete control, read-out: Plant response rating, Barnyardgrass): 30% | pest or weed control at 125 g/ha ([14]; 125 g ai/ha, postemergence, visual injury vs untreated controls after approx. 10 d, 0 = no effect, 100 = complete control, read-out: Ryegrass, Italian plant response rating (0 to 100 scale)): 0% | pest or weed control at 31 g/ha ([14]; Postemergence, 31 g ai/ha, visual injury after approx. 10 d, 0 to 100 scale, 0 no effect, 100 complete control, read-out: Plant response rating, Ryegrass, Italian): 0% | pest or weed control at 125 g/ha (Kochia (Kochia scoparia) [15]; 125 g ai/ha, postemergence, visual injury vs untreated controls after approx. 10 d, 0 = no effect, 100 = complete control, read-out: Kochia plant response rating (0 to 100 scale)): 0% | pest or weed control at 31 g/ha (Kochia (Kochia scoparia) [15]; Postemergence, 31 g ai/ha, visual injury after approx. 10 d, 0 to 100 scale, 0 no effect, 100 complete control, read-out: Plant response rating, Kochia): 0% | pest or weed control at 125 g/ha ([16]; 125 g ai/ha, postemergence, visual injury vs untreated controls after approx. 10 d, 0 = no effect, 100 = complete control, read-out: Blackgrass plant response rating (0 to 100 scale)): 0% | pest or weed control at 31 g/ha ([16]; Postemergence, 31 g ai/ha, visual injury after approx. 10 d, 0 to 100 scale, 0 no effect, 100 complete control, read-out: Plant response rating, Blackgrass): 0% | plant injury at 125 g/ha ([17]; 125 g ai/ha, postemergence, visual injury vs untreated controls after approx. 10 d, 0 = no effect, 100 = complete control, read-out: Wheat plant response rating (0 to 100 scale)): 20% | plant injury at 31 g/ha ([17]; Postemergence, 31 g ai/ha, visual injury after approx. 10 d, 0 to 100 scale, 0 no effect, 100 complete control, read-out: Plant response rating, Wheat): 0% | pest or weed control at 125 g/ha ([18]; 125 g ai/ha, postemergence, visual injury vs untreated controls after approx. 10 d, 0 = no effect, 100 = complete control, read-out: Pigweed plant response rating (0 to 100 scale)): 0% | pest or weed control at 31 g/ha ([18]; Postemergence, 31 g ai/ha, visual injury after approx. 10 d, 0 to 100 scale, 0 no effect, 100 complete control, read-out: Plant response rating, Pigweed): 0%

— US12077503B2, “Substituted cyclic amides and their use as herbicides” (FMC CORPORATION, priority 2015, dated 2024)
